The target in one assay is T1, equine serum BChE (Equus caballus, UniProt P81908).
T1 construct: We used human erythrocyte AChE, equine serum BChE, and porcine liver CaE; purchased Sigma-Aldrich (Germany); host or cells: equine serum
Put plainly: biochemical. The note with it: for inhibition at 20 µM: read-out: inhibition % at 20 μM, BChE.

In the next assay the target is T2, porcine liver CaE (Sus scrofa, UniProt Q29550).
T2 sequence (Q29550 19-566): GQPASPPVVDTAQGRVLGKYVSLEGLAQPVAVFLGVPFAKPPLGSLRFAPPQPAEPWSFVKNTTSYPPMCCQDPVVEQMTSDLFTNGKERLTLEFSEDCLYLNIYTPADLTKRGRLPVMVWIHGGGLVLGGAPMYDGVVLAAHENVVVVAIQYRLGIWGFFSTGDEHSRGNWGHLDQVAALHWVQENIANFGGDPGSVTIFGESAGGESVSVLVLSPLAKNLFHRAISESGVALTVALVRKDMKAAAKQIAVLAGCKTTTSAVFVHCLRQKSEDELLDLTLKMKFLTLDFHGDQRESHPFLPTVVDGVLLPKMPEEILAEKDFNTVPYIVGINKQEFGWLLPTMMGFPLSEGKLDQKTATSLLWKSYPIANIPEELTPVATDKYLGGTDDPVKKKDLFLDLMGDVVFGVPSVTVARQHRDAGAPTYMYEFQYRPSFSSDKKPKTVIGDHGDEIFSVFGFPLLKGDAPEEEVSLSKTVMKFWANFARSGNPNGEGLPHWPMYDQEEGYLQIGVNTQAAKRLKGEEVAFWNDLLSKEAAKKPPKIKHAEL
Put plainly: In vitro CaE inhibition (4-nitrophenyl acetate hydrolysis). The note with it: for inhibition at 20 µM: 20 μM of compound. Format: biochemical. The protocol:
Acetylcholinesterase (AChE, EC 3.1.1.7, from human erythrocyte), butyrylcholinesterase (BChE, EC 3.1.1.8, from equine serum), carboxylesterase (CaE, EC 3.1.1.1, from porcine liver), acetylthiocholine iodide (ATCh), butylthiocholine iodide (BTCh), 5,5′-dithiobis-(2-nitrobenzoic acid) (DTNB), and 4-nitrophenol acetate (4-NPA), were purchased from Sigma-Aldrich (Germany).
The activity of CaE was determined spectrophotometrically by the release of 4-nitrophenol at 405 nm[76]. The assay solution consisted of 0.1 M K/Na phosphate buffer (pH 8.0, 25 °C) with the addition of 1 mM 4-nitrophenyl acetate and 0.02 unit/mL of CaE. The assays were carried out with a blank containing all components except CaE.
The test compounds were dissolved in DMSO; the incubation mixture contained 2% of the solvent. […] The test compounds were added to the assay solution and pre-incubated at 25 °C with the enzymes for 10 min followed by the addition of the substrate. A parallel control was made for the assay solution with no inhibitor. […] Each experiment was performed in triplicate. The results were expressed as the mean ± SEM. The reaction rates in the presence and absence of inhibitor were compared, and the percentage of residual enzyme activity due to the presence of test compounds was calculated.

The target in a further assay is T3, tubulin (Sus scrofa, UniProt P02550+P02554).
T3 construct: purchased Cytoskeleton, Inc., Denver, USA
Put plainly: Tubulin polymerization to microtubules (absorbance at 355 nm). The note with it: read-out: (dA355/dt)max, % of control. The format is biochemical. The method, then: The primary screening for the effect on tubulin polymerization in vitro was performed using a commercial tubulin in the presence of 0.1 mM of the carbazole–aminoadamantane conjugates. In blank probes, tubulin (40 μM) polymerization in the presence of 10% DMSO (as in the case of test probes) leads to absorbance increase after a rather long (80–120 minutes) lag period. […] The results are summarized in Table 3 as the maximum rate of absorbance increase for a tubulin- microtubules suspension normalized to the blank value.
The assembly of tubulin into microtubules was carried out using pure tubulin from HTS- Tubulin polymerization assay kit (Cytoskeleton, Inc., Denver, USA). […] The standard polymerization reaction contained 100 μl of a 4 mg/ml tubulin solution in 80 mM PIPES (pH 6.9), 0.5 mM EGTA, 2 mM MgCl2, and 1 mM GTP. […] The parameter Vmax = (dA355/dt)^max normalized to control probes (%) was used to compare the action of the compounds. Electron microscopic monitoring was carried out on Carl Zeiss Libra 120 Electron Microscope (Carl Zeiss Meditec AG, Jena, Germany) at 120 kV using negative countstaining.

Assay [1] has as its target T4, ifenprodil binding site of NMDA receptors containing NR2B subunits (Rattus norvegicus, UniProt P35439+Q00960).
T4 construct: we used a membrane preparation of rat cerebral hippocampus; from tissue; host or cells: rat hippocampal membranes
The assay can be described thus: Radioligand binding, competition with [3H]ifenprodil. As to conditions: rat hippocampal membranes.
Experimental: (§1) Two radioactive ligands were used: [^3H]
(§2) The obtained membrane pellet was resuspended in a work buffer (5 mM HEPES/4.5 mM Tris buffer, pH 7.6) in a ratio of 1:5 and stored in liquid nitrogen. The reaction mixture (the final volume of 0.5 ml) contained 200 μl of the working buffer, 50 μl of 50 nM radioligand solution, and 250 μl of the membrane suspension. Nonspecific binding was determined in the presence of 50 μl of 1 mM of unlabeled ligand.
(§3) For binding study, the reaction mixture was incubated at room temperature for 2 hours. After incubation, the samples were filtered through GF/B glass-fiber filters (Whatman), washed with the work buffer, dried, and transferred to scintillation vials to which 5 ml of scintillation fluid was added containing 4 g of diphenyloxazole (PPO), 0.2 g of diphenyloxazoil benzene (POPOP), and 1 liter of toluene.
(§4) The effect of the test compounds on the binding of [^3H]

Assay [2] addresses T5, MK-801 binding (intrachannel) site of NMDA receptor (Rattus norvegicus, UniProt P35439).
T5 construct: we used a membrane preparation of rat cerebral hippocampus; from tissue; host or cells: rat hippocampal membranes
The assay can be described thus: Radioligand binding, competition with [3H]MK-801. As to conditions: rat hippocampal membranes.
Experimental: as §1, §2, §3, §4

For a further assay, the target named is T6, human erythrocyte AChE (Homo sapiens, UniProt P22303).
T6 construct: We used human erythrocyte AChE, equine serum BChE, and porcine liver CaE; purchased Sigma-Aldrich (Germany); host or cells: human erythrocyte
Put plainly: biochemical. As to conditions: for inhibition at 20 µM: read-out: inhibition % at 20 μM, AChE.

Assay [3] has as its system SH-SY5Y neuroblastoma cells. Put plainly: Ionomycin-induced toxicity in SH-SY5Y neuroblastoma cells (MTT test). As to conditions: 3 μM ionomycin, 24 hours. The format is cell-based, human. The protocol:
The human neuroblastoma cell line SH-SY5Y was used for all experiments. The cells were cultured in a humidified, 5% (v/v) CO2-controlled environment at 37 °C, and grown in MEM/F12 culture medium supplemented with 15% fetal bovine serum (FBS), 100 U/mL penicillin, and […][90].
The cell viability was evaluated as the dehydrogenase activity with the 3-(4,5-dimethylthiazol-2-yl)-2,5-diphenyltetrazolium bromide (MTT) assay. Briefly, the SH-SY5Y cells were incubated with 0.1 and 1 μM of a test compound or an equal volume of the vehicle (<1% of the whole volume of the medium under the layer of cells) and 3 μM ionomycine for 24 h. The absorbance was measured at 570 nm using a Victor microplate reader (Perkin Elmer).
On the technique in general: Tetrazolium dyes change colour on reduction, which living cells bring about.

The mark [4] stands for this setting: equine serum BChE, pH 7.5, 25 °C, 10 min pre-incubation, read-out: IC50 ± SEM, BChE.

Read-outs that look alike come from different tables or passages of the source.

T3 sequence (P02550 whole entry): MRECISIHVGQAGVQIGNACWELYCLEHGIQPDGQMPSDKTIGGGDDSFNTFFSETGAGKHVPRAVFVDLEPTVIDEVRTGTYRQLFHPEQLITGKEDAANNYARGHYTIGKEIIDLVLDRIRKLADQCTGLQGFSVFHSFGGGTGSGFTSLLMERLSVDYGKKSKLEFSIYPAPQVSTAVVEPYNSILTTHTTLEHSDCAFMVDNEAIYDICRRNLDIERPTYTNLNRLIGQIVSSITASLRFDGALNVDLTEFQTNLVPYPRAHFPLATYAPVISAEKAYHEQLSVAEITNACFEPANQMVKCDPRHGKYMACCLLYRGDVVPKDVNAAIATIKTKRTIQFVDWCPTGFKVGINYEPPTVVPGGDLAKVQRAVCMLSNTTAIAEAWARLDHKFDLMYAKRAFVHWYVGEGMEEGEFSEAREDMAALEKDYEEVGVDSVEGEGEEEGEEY
T3 sequence (P02554 whole entry): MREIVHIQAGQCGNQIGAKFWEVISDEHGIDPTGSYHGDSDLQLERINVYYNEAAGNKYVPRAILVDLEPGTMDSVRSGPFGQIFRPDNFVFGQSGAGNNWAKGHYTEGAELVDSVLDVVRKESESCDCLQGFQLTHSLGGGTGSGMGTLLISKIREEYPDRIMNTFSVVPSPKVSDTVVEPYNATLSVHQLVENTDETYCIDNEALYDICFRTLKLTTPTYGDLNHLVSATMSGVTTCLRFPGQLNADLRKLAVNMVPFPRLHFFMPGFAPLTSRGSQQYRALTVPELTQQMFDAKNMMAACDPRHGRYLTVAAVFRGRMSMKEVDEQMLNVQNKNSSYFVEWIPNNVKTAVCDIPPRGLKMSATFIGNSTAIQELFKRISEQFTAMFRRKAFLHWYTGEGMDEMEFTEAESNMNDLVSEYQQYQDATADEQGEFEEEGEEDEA
T1 sequence (P81908 whole entry): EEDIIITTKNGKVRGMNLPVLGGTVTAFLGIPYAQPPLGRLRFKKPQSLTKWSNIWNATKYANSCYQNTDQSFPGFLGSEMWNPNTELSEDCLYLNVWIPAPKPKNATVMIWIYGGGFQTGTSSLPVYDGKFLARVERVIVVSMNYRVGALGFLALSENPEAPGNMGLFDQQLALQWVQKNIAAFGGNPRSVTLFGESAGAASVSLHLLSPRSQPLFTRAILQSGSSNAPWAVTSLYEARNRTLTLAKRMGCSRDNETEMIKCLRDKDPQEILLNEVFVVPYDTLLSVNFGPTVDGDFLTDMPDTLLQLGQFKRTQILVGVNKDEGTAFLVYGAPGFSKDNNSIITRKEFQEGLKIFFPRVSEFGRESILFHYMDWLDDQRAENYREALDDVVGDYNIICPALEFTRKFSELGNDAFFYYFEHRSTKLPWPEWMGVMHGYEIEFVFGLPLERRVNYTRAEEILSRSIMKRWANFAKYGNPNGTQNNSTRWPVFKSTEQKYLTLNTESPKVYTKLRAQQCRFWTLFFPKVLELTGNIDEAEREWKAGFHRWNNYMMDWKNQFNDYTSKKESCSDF
T6 sequence (P22303 32-617 isoform P22303-2 limits assumed): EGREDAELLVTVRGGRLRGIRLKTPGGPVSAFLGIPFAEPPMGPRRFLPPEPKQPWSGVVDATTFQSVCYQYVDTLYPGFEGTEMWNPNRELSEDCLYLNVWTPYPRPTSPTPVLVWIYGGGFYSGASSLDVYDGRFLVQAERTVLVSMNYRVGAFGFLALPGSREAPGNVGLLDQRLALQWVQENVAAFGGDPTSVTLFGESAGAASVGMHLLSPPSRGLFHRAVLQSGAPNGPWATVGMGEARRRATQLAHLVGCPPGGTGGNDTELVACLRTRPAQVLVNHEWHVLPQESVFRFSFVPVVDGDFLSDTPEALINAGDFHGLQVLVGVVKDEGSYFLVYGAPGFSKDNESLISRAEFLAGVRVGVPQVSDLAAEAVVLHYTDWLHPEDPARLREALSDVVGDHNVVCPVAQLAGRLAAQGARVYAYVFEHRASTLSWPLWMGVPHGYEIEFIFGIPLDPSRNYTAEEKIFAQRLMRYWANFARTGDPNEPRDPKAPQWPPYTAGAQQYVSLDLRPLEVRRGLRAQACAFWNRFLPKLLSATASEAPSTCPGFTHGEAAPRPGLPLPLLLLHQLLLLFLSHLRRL
T4 sequence (Q00960 27-1482, other chains not shown): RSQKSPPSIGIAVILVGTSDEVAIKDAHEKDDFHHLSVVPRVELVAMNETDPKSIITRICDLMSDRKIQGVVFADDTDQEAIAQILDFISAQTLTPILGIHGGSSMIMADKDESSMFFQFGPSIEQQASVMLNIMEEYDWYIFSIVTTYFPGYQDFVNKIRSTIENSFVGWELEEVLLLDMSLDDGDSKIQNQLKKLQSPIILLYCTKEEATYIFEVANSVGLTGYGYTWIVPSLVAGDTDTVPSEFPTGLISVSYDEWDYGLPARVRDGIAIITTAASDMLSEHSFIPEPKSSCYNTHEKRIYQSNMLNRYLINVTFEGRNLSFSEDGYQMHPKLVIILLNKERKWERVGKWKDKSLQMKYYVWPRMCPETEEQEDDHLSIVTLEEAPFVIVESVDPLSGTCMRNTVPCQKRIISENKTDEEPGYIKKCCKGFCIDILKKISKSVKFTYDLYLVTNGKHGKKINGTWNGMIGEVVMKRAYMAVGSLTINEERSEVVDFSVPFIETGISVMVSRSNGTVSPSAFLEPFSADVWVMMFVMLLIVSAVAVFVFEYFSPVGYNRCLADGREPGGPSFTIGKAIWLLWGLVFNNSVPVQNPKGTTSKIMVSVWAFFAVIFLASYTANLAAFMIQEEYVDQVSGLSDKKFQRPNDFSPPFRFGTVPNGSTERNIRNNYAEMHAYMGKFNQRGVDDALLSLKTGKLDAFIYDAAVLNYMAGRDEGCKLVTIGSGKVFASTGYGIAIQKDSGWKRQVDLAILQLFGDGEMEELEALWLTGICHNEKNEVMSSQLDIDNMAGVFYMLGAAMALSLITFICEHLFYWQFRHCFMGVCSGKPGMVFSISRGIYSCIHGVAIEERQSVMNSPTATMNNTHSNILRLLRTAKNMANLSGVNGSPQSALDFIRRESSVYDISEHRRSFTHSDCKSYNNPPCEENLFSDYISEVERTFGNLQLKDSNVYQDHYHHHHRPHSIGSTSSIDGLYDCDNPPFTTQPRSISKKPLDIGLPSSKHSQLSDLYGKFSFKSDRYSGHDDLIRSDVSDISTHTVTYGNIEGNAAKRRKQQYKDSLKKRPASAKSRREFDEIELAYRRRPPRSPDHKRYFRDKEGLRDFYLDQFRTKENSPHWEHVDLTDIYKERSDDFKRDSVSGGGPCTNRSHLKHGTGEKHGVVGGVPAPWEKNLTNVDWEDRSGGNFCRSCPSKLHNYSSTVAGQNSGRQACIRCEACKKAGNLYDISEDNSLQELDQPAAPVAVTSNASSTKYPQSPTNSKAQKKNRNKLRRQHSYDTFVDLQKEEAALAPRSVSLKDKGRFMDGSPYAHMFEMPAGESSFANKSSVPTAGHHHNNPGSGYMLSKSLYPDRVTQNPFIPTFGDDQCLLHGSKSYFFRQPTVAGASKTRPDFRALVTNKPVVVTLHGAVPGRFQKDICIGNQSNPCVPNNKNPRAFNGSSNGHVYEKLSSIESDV
Experimental for equine serum BChE: (§5) The AChE and BChE activities were measured by the method of Ellman and co-workers as described earlier[75]. The assay solution consisted of 0.1 M K/Na phosphate buffer (pH 7.5, 25 °C) with the addition of 0.33 mM DTNB, 0.02 unit/mL of AChE or BChE, and 1 mM of substrate (ATCh or BTCh, respectively). The assays were carried out with a blank containing all components except ATCh and BTCh in order to take account of a non-enzymatic reaction.
(§6) The test compounds were dissolved in DMSO; the incubation mixture contained 2% of the solvent. […] The test compounds were added to the assay solution and pre-incubated at 25 °C with the enzymes for 10 min followed by the addition of the substrate. A parallel control was made for the assay solution with no inhibitor. Measurements were performed in a FLUOStar OPTIMA multifunctional reader (BMG Labtech, Germany). Each experiment was performed in triplicate. The results were expressed as the mean ± SEM. The reaction rates in the presence and absence of inhibitor were compared, and the percentage of residual enzyme activity due to the presence of test compounds was calculated.
Experimental for human erythrocyte AChE: as §5, §6

As to `NC12CC3CC(CC(C3)C1)C2` [Amantadine], the inhibition (usually the percentage by which the read-out fell short of the control) at 20 µM on equine serum BChE (20 μM of compound) is 6.9%; on porcine liver CaE it was 3.2%. The IC50 (commonly the concentration needed to halve the response being measured) on equine serum BChE (setting [4]) is more than 20 µM. For the same compound, the remaining activity at 100 µM on tubulin (at 100 μM of compound, 100% = vehicle control (10% DMSO)) came out at 98 ± 16%. For the same compound, the “% of [3H]ifenprodil blockade at 100 μM of compound” value in assay [1] was found to be 44.6 ± 4.6%. In addition, the “% of [3H]МК-801 blockade at 100 μM of compound” value in assay [2] worked out at 57.2 ± 5.5%.
For `O=[N+]([O-])c1ccc(OP(=O)(O)Oc2ccc([N+](=O)[O-])cc2)cc1` [BNPP, Bis-4-nitrophenyl phosphate], the IC50 at porcine liver CaE (porcine liver CaE, pH 8.0, 25 °C, read-out: IC50 ± SEM, CaE) amounted to 1.8 ± 0.11 µM.
Consider `c1ccc2c(c1)[nH]c1ccccc12` [Carbazole], for which the 50% inhibitory concentration (IC50) against human erythrocyte AChE and against equine serum BChE was more than 20 µM throughout. Moreover, the inhibition at 20 µM at human erythrocyte AChE was determined as 1.8%; at equine serum BChE, 16.1%; against porcine liver CaE, 9.4%. Moreover, the maximum polymerization rate, % of control at 100 µM on tubulin came to 123 ± 12%.
Turning to `CC12CC3CC(C)(C1)CC(N)(C3)C2.Cl` [Memantine, 1-amino-3,5-dimethyladamantane hydrochloride], the IC50 was more than 20 µM on human erythrocyte AChE (read-out: IC50 ± SEM, AChE) and more than 20 µM at equine serum BChE (setting [4]). Further, the figures for the inhibition at 20 µM on human erythrocyte AChE, on equine serum BChE and against porcine liver CaE were 1.3%, 13.7% and 3%, respectively. For the same compound, the maximum polymerization rate, % of control at 100 µM on tubulin is 89 ± 7%. Further, the “% of [3H]ifenprodil blockade at 100 μM of compound” value in assay [1] came to 11.2 ± 1.1%. Moreover, the “% of [3H]МК-801 blockade at 100 μM of compound” value in assay [2] worked out at 100%.
As for `CC(=O)O[C@H]1C(=O)[C@@]2(C)[C@H]([C@H](OC(=O)c3ccccc3)[C@]3(O)C[C@H](OC(=O)[C@H](O)[C@@H](NC(=O)c4ccccc4)c4ccccc4)C(C)=C1C3(C)C)[C@]1(OC(C)=O)CO[C@@H]1C[C@@H]2O` [Paclitaxel], the remaining activity at 5 µM on tubulin (5 μM, 100% = vehicle control (10% DMSO)) is 487 ± 32%.
On to `C[C@H](CCC(=O)O)C[C@H](C)C[C@H](C)C(=O)/C=C(\O)[C@H](C)C[C@H](C)C/C=C/[C@@H](C)[C@@H](O)[C@@H](C)[C@@H](O)C[C@@H]1CC[C@@](C)([C@H]2CC[C@@](C)([C@@H](C)O)O2)O1` [ionomycin], for which the “reduction of neuroblastoma cell survival” value in assay [3] is 36 ± 4%.

These data come from PMC5372361 (Scientific Reports, 2017).
